One assay has as its target T1, hNPFFR1 (Homo sapiens, UniProt Q9GZQ6).
T1 construct: expressed in transfected cells; membranes
Nature of the assay: Radioligand binding competition, membranes from CHO cells expressing hNPFFR1. The conditions noted are these: 0.015 nM [D-Tyr1[125I], N-MePhe3]-NPFF, 1 hr at 25° C., read-out: NPFF1-R Ki. As to the method:
(§1) Competition experiments with membranes from CHO cells stably expressing hNPFFR1 and hNPFFR2 were performed essentially as described in Elhabazi, K., et al. Neuropharmacology, 2013. 75C, 164-171., Briefly, hNPFFR1 or hNPFFR2 membranes (5 to 10 μg of proteins) were incubated (1 hr at 25° C.; 0.25 mL total volume) with 0.015 nM [D-Tyr1[125I], N-MePhe3]-NPFF (Hartmann Analytic GmbH) in 50 mM HEPES (pH 7.4), 1 mM CaCl2, 1 mM MgCl2 and 0.1% bovine serum albumin. Non-specific binding was determined in the presence of 10 μM RFRP-3. Incubation was terminated by rapid filtration through a 96-well GF/B unifilter apparatus (Perkin Elmer Life and Analytical Sciences, Courtaboeuf, France). Unifilters were washed five times with binding buffer, then dried for 1 h at 65° C. After addition of 40 μL scintillation cocktail (Microscint-O, Perkin Elmer) per well, bound radioactivity was determined on a TopCount scintillation counter (Perkin Elmer).

In the next assay the target is T2, hNPFFR2 (Homo sapiens, UniProt Q9Y5X5).
T2 construct: expressed in transfected cells; membranes
Nature of the assay: Radioligand binding competition, membranes from CHO cells expressing hNPFFR2. The conditions noted are these: 0.015 nM [D-Tyr1[125I], N-MePhe3]-NPFF, 1 hr at 25° C.; for Ki: read-out: NPFF2-R Ki. The protocol:
as §1

The target of assay [1] is T3, human NPFFR1 (hNPFFR1) receptor (Homo sapiens, UniProt Q9GZQ6).
T3 construct: expressed in transfected cells; host or cells: HEK-293 T cells, transient co-transfection
Nature of the assay: Human NPFFR1 evaluation using BRET biosensors in HEK-293 T cells. The note with it: hNPFFR1 in HEK-293 T cells, stimulated by EC80 RFRP-3, read-out: IC50 of antagonist activity. The assay is classed as cell-based. In a few lines: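 HEK-293 T cells transiently co-expressing hNPFFR1, GαoB and a Gi-effector BRET biosensor pair; agonist read after 10 min compound alone, then antagonism after EC80 RFRP-3 for 10 min. IC50 from 20-point curves over 6 logs, duplicates in two independent experiments.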
(In general: BRET reads energy transfer from a luciferase to a nearby fluorophore.)

T1 sequence (Q9GZQ6 whole entry): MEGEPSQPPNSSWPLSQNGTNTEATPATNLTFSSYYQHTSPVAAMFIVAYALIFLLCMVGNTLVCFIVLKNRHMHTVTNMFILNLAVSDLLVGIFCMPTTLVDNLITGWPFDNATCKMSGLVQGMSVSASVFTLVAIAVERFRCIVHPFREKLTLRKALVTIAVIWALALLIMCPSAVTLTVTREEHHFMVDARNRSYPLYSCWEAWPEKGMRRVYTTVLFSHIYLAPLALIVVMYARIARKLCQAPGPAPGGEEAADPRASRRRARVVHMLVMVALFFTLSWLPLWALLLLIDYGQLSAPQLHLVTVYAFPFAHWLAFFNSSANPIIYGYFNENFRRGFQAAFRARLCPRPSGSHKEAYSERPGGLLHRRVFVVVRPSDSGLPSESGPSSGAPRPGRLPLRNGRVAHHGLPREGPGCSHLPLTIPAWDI
T3 sequence (Q9GZQ6 whole entry): as above
T2 sequence (Q9Y5X5 whole entry): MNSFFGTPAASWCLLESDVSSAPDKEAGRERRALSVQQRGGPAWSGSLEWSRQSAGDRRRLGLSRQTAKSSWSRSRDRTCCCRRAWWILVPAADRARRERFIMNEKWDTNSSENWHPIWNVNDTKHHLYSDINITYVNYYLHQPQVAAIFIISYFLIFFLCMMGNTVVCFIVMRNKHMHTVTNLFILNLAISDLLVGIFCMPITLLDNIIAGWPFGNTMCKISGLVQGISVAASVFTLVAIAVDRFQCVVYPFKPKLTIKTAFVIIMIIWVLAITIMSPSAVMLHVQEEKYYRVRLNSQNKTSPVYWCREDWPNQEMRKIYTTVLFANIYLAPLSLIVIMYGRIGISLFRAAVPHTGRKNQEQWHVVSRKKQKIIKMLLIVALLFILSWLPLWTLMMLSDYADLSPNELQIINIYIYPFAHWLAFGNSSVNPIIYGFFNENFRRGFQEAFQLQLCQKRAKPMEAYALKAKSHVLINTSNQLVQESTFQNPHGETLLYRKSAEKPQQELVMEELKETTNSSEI

Turning to `Nc1ccc(-c2ccc(Cl)cc2)c(N)n1` [Compound 1i, 3-(4-chlorophenyl)pyridine-2,6-diamine], the values for the inhibition constant (Ki) on hNPFFR1 and on hNPFFR2 were 786 nM and 8800 nM, respectively. In addition, the IC50 in assay [1] was above 1000 nM.

`CCc1nc(N)ccc1-c1cccc(Cl)c1Cl` [Compound 6c, 5-(2,3-dichlorophenyl)-6-ethylpyridin-2-amine]: the inhibitory constant (Ki) came out at 25 nM on hNPFFR1 and 800 nM at hNPFFR2. The half-maximal inhibitory concentration (IC50) in assay [1] was 500 to 1000 nM.

`CCNc1nc(N)ccc1-c1cccc(Cl)c1Cl` [Compound 5b, 3-(2,3-dichlorophenyl)-N2-ethylpyridine-2,6-diamine]: the Ki on hNPFFR1 is 79.2 nM; at hNPFFR2, 2200 nM. The IC50 in assay [1] was 500 to 1000 nM.

For `Cc1nc(N)ccc1-c1cccc(Cl)c1Cl` [Compound 6b, 5-(2,3-dichlorophenyl)-6-methylpyridin-2-amine], the inhibitory constant (Ki) at hNPFFR1 was 81.4 nM; at hNPFFR2, 2000 nM. For the same compound, the IC50 in assay [1] fell in the range of 500 to 1000 nM.

On to `Nc1ccc(Cc2ccccc2Cl)c(N)n1` [Compound 10e, 3-(2-chlorobenzyl)pyridine-2,6-diamine], for which the inhibition constant Ki was determined as 3.7 nM at hNPFFR1 and 450 nM at hNPFFR2. The concentration for half-maximal inhibition (IC50) in assay [1] was in the range of 100 to 500 nM.

On to `CCOc1ccccc1-c1ccc(N)nc1N` [Compound 2d, 3-(2-ethoxyphenyl)pyridine-2,6-diamine], for which the inhibition constant Ki on hNPFFR1 came to 15 nM; at hNPFFR2, 700 nM. In assay [1], the IC50 lay in the range of 100 to 500 nM.

`Nc1ccc(-c2cccc(Cl)c2)c(N)n1` [Compound 1h, 3-(3-chlorophenyl)pyridine-2,6-diamine]: the values for the Ki on hNPFFR1 and on hNPFFR2 were 90 nM and 300 nM, respectively. In assay [1], the IC50 was 500 to 1000 nM.

Regarding `Nc1ccc(-c2ccc(Cl)c(Cl)c2)c(N)n1` [Compound 1n, 3-(3,4-dichlorophenyl) pyridine-2,6-diamine], the inhibition constant Ki came to 313 nM at hNPFFR1 and 2560 nM at hNPFFR2. The IC50 in assay [1] was above 1000 nM.

For `Nc1ccc(-c2cccc(Cl)c2Cl)c(NCc2ccccc2)n1` [Compound 5d, N2-benzyl-3-(2,3-dichlorophenyl)pyridine-2,6-diamine], the Ki at hNPFFR1 is 84 nM; at hNPFFR2, 1900 nM. The IC50 in assay [1] was above 1000 nM.

Turning to `CCCc1nc(N)ccc1-c1ccccc1OC` [Compound 6g, 5-(2-methoxyphenyl)-6-propylpyridin-2-amine], the Ki at hNPFFR1 is 6.3 nM; on hNPFFR2, 470 nM. Further, the IC50 in assay [1] fell in the range of 100 to 500 nM.

`CC(C)Nc1nc(N)ccc1-c1cccc(Cl)c1Cl` [Compound 5e, 3-(2,3-dichlorophenyl)-N2-isopropylpyridine-2,6-diamine]: the inhibitory constant (Ki) on hNPFFR1 was 250 nM; at hNPFFR2, 1900 nM. Moreover, in assay [1], the IC50 was above 1000 nM.

For the compound `Nc1ccc(Cc2ccc(Cl)cc2)c(N)n1` [Compound 10c, 3-(4-chlorobenzyl)pyridine-2,6-diamine], the Ki on hNPFFR1 is 56 nM; at hNPFFR2, 2700 nM. The IC50 in assay [1] fell in the range of 500 to 1000 nM.

`Nc1ccc(-c2ccccc2OC2CCCC2)c(N)n1` [Compound 2i, 3-(2-(cyclopentyloxy)phenyl)pyridine-2,6-diamine]: the Ki came to 4 nM at hNPFFR1 and 280 nM on hNPFFR2. The half-inhibitory concentration (IC50) in assay [1] lay in the range of 100 to 500 nM.

As to `Nc1ccc(-c2ccccc2-c2ccccc2)c(N)n1` [Compound 1r, 3-([1,1′-biphenyl]-2-yl)pyridine-2,6-diamine], the values for the Ki at hNPFFR1 and on hNPFFR2 were 20.7 nM and 700 nM, respectively. Further, the IC50 in assay [1] was 100 to 500 nM.

On to `Nc1ccc(Cc2cccc(Cl)c2)c(N)n1` [Compound 10d, 3-(3-chlorobenzyl)pyridine-2,6-diamine], for which the Ki worked out at 19 nM at hNPFFR1 and 900 nM at hNPFFR2. Also, in assay [1], the IC50 was in the range of 500 to 1000 nM.

Regarding `COc1ccccc1-c1ccc(N)nc1C1CC1` [Compound 6i, 6-cyclopropyl-5-(2-methoxyphenyl)pyridin-2-amine], the Ki at hNPFFR1 turned out to be 31 nM; on hNPFFR2, 1400 nM. For the same compound, the 50% inhibitory concentration (IC50) in assay [1] lay within 500 to 1000 nM.

In the case of `Nc1ccc(-c2ccccc2Cl)c(N)n1` [Compound 1b, 3-(2-chlorophenyl)pyridine-2,6-diamine], the Ki on hNPFFR1 was 39 nM; at hNPFFR2, 1300 nM. In addition, in assay [1], the IC50 is 500 to 1000 nM.

As to `COc1ccc(-c2ccc(N)nc2N)c(OC)c1` [Compound 2m], the inhibitory constant (Ki) is 45.7 nM at hNPFFR1 and 1870 nM on hNPFFR2. In addition, the IC50 in assay [1] was above 1000 nM.

Consider `CCc1ccccc1-c1ccc(N)nc1N` [Compound 1d, 3-(2-ethylphenyl)pyridine-2,6-diamine], for which the values for the Ki at hNPFFR1 and at hNPFFR2 were 6.2 nM and 2000 nM, respectively. Also, the IC50 in assay [1] was in the range of 100 to 500 nM.

Consider `Nc1ccc(-c2cccc(Cl)c2Cl)cn1` [Compound 6a, 5-(2,3-dichlorophenyl)pyridin-2-amine], for which the Ki was determined as 577 nM at hNPFFR1 and 4200 nM on hNPFFR2. For the same compound, in assay [1], the IC50 is above 1000 nM.

Take `COCc1nc(N)ccc1-c1ccccc1OC` [Compound 6e, 6-(methoxymethyl)-5-(2-methoxyphenyl)pyridin-2-amine]: the results for the Ki at hNPFFR1 and at hNPFFR2 were 461 nM and 18600 nM, respectively. Further, in assay [1], the 50% inhibitory concentration (IC50) was above 1000 nM.

As for `Nc1ccc(-c2cc(Cl)ccc2Cl)c(N)n1` [Compound 1l, 3-(2,5-dichlorophenyl) pyridine-2,6-diamine], the inhibition constant Ki on hNPFFR1 is 335 nM; on hNPFFR2, 26700 nM. The concentration for half-maximal inhibition (IC50) in assay [1] lay in the range of 100 to 500 nM.

Regarding `Nc1ccc(Cc2ccccc2)c(N)n1` [Compound 10a, 3-benzylpyridine-2,6-diamine], the values for the inhibitory constant (Ki) at hNPFFR1 and at hNPFFR2 were 76 ± 12 nM and 2800 nM, respectively. The IC50 in assay [1] is above 1000 nM.

`CCCCOc1ccccc1-c1ccc(N)nc1N` [Compound 2e, 3-(2-butoxyphenyl)pyridine-2,6-diamine]: the inhibition constant Ki on hNPFFR1 amounted to 10.5 nM; at hNPFFR2 it was 1800 nM. Besides, the concentration for half-maximal inhibition (IC50) in assay [1] lay in the range of 100 to 500 nM.

Turning to `COCc1ccccc1-c1ccc(N)nc1N` [Compound 1g, 3-(2-(methoxymethyl)phenyl) pyridine-2,6-diamine], the Ki at hNPFFR1 came to 58 nM; on hNPFFR2 it was 1200 nM. Besides, in assay [1], the IC50 lay in the range of 500 to 1000 nM.

For `COc1cc(F)ccc1-c1ccc(N)nc1N` [Compound 2k, 3-(4-fluoro-2-methoxyphenyl) pyridine-2,6-diamine], the figures for the inhibition constant (Ki) on hNPFFR1 and on hNPFFR2 were 27.6 nM and 3200 nM, respectively. For the same compound, the half-inhibitory concentration (IC50) in assay [1] lay in the range of 500 to 1000 nM.

For `CC(C)COc1ccccc1-c1ccc(N)nc1N` [Compound 2g, 3-(2-isobutoxyphenyl) pyridine-2,6-diamine], the Ki on hNPFFR1 turned out to be 9 nM; on hNPFFR2, 700 nM. Moreover, the IC50 in assay [1] lay within 100 to 500 nM.

For `Nc1ccc(Cc2ccc(Cl)cc2Cl)c(N)n1` [Compound 10f, 3-(2,4-dichlorobenzyl)pyridine-2,6-diamine], the inhibition constant Ki on hNPFFR1 is 3.7 nM; on hNPFFR2 it was 500 nM. The half-maximal inhibitory concentration (IC50) in assay [1] lay in the range of 100 to 500 nM.

Turning to `CNc1nc(N)ccc1-c1cccc(Cl)c1Cl` [Compound 5a, 3-(2,3-dichlorophenyl)-N2-methylpyridine-2,6-diamine], the Ki on hNPFFR1 was found to be 81.2 nM; on hNPFFR2 it was 2300 nM. In addition, in assay [1], the half-maximal inhibitory concentration (IC50) was above 1000 nM.

As for `CC(C)Oc1ccccc1-c1ccc(N)nc1N` [Compound 2f, 3-(2-isopropoxyphenyl)pyridine-2,6-diamine], the values for the inhibition constant (Ki) at hNPFFR1 and on hNPFFR2 were 11.3 nM and 2100 nM, respectively. Besides, the IC50 in assay [1] is 100 to 500 nM.

Consider `Nc1ccc(-c2cccc(C(F)(F)F)c2Cl)c(N)n1` [Compound 1p, 3-(2-chloro-3-(trifluoromethyl)phenyl) pyridine-2,6-diamine], for which the Ki on hNPFFR1 came out at 65 nM; on hNPFFR2, 4600 nM. Besides, the 50% inhibitory concentration (IC50) in assay [1] was in the range of 100 to 500 nM.

Regarding `Nc1ccc(-c2ccccc2O)c(N)n1` [Compound 2a, 2-(2,6-diaminopyridin-3-yl)phenol], the inhibition constant (Ki) at hNPFFR1 came to 11.8 nM; at hNPFFR2, 1100 nM. For the same compound, in assay [1], the half-maximal inhibitory concentration (IC50) is 500 to 1000 nM.

For the compound `Nc1ccc(-c2cc3ccccc3o2)c(N)n1` [Compound 3c, 3-(benzofuran-2-yl) pyridine-2,6-diamine], the Ki stood at 524 nM at hNPFFR1 and 34000 nM at hNPFFR2.

As for `Nc1ccc(-c2ccco2)c(N)n1` [Compound 3a, 3-(furan-2-yl)pyridine-2,6-diamine], the values for the Ki on hNPFFR1 and at hNPFFR2 were 5080 nM and 106000 nM, respectively.

Take `CCCCNc1nc(N)ccc1-c1cccc(Cl)c1Cl` [Compound 5c, N2-butyl-3-(2,3-dichlorophenyl)pyridine-2,6-diamine]: the inhibition constant Ki came to 416 nM on hNPFFR1 and 6900 nM at hNPFFR2.

Take “4′-methyl-[3,4′-bipyridine]-2,6-diamine [Compound 3f]”: the Ki on hNPFFR1 turned out to be 515 nM. The “NPFF2-R Ki (nM)” value at hNPFFR2 is “ns”.

By Ki is commonly meant a measure of affinity in units of concentration, obtained from inhibition or displacement. In general, IC50 refers to the midpoint of a concentration-inhibition curve.

These data come from patent US20210221784A1, “COMPOUNDS AND COMPOSITIONS FOR THE TREATMENT OF PAIN” (Université de Strasbourg, priority 2018, published 2021).
